Assay results reported in patent US9150592B2, “Heterocyclic nuclear hormone receptor modulators” (AbbVie Inc., priority 2012, dated 2015).

Legend:
[1] = test system: IL-6 in A549 cells stimulated with IL-1β; assay: A549 Cell Assay to Measure Inflammation Markers (inhibition of IL-1β-induced IL-6); assay type: cell-based; details: intrinsic activity, Emax class ranges; for Emax: Homo sapiens, A549, A549 Cell Assay to Measure Inflammation Markers; for A549 Emax: A549 Cell Assay to Measure Inflammation Markers
Description: A549 Cell Assay to Measure Inflammation Markers
Further dilution (1:250) of compound was made into assay medium and 50 μL/well diluted drug or DMSO/media control was applied to cells. After a 1 h pre-incubation in a temperature, CO2, and humidity controlled incubator, set to 37° C., 50 μL/well of 4 ng/mL IL-1β diluted in assay media, was applied to cultures. Assay plates, with a final volume of 200 μL/well and final concentrations of 0.1% DMSO and 1 ng/mL IL-1β were returned to incubator for a […] incubation period. Next, plates were spun at 183 g (1000 rpm in Beckman/Coulter Allegra 6KR centrifuge) for 10 min. Cell-free supernatant (150 μL/well) was collected and IL-6 was measured by MSD kit, following protocol of manufacturer, and using MSD SECTOR Imager 6000 instrument. […] Results were represented as IC50 and Emax values.

[2] = target: T1, Glucocorticoid Receptor (GR) (Homo sapiens, UniProt P04150); assay: GR Fluorescence Polarization Assay (PolarScreen Glucocorticoid Receptor Competitor Assay, Red); details: IC50 class ranges, read-out: GR binding
T1 construct: purchased Invitrogen P2893
T1 sequence (P04150 1-777): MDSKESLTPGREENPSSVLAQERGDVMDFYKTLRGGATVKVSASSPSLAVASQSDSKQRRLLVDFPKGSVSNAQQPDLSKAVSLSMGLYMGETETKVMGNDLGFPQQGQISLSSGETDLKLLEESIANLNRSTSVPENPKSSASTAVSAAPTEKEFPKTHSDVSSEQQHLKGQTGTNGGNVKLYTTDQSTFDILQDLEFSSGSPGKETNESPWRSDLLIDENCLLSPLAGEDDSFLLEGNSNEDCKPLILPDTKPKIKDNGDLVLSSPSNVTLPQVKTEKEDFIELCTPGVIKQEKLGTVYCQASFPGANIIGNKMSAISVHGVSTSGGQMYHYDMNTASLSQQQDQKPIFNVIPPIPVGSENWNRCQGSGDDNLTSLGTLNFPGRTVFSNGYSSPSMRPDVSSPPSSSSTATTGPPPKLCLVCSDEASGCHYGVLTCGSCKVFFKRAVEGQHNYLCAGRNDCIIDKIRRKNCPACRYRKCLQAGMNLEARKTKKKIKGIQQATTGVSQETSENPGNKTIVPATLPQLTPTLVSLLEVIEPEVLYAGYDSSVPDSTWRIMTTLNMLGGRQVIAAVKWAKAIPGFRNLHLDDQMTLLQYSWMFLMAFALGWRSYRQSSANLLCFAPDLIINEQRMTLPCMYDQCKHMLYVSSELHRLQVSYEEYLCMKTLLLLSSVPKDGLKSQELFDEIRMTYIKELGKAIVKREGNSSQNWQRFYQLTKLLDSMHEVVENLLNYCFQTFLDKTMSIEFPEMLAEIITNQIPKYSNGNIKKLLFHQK
Description: GR Fluorescence Polarization Assay
Fluorescence polarization assays were carried out using the PolarScreen™ Glucocorticoid Receptor Competitor Assay, Red from Invitrogen (P2893). The assay buffer was prepared according to the manufacturer's protocol and used to dilute the fluorescent glucocorticoid and GR. Compounds were prepared and serial diluted 1:4 in DMSO. Compound, fluorescent glucocorticoid and GR were added in a final volume of 20 μL and incubated overnight at 4° C. Fluorescent polarization was measured on the PerkinElmer Envision®.

Row | SMILES | Emax [1] [%] | IC50 [2] [nM] | A549 Emax [1]
1 | CC(=O)N1CCC(C2SCCNc3c2c(-c2ccccn2)nn3C)CC1 (stereo not shown) | < 50 | > 10000 | –
2 | Cc1cc(OCc2cccnc2)ccc1C1SCCNc2c1c(-c1ccccn1)nn2C (stereo not shown) | < 50 | 100 to 1000 | –
3 | Cc1cc(OCc2cccnc2C)ccc1C1SCCNc2c1c(-c1ccccn1)nn2C (stereo not shown) | < 50 | < 100 | –
4 | Cc1cc(S(C)(=O)=O)ccc1C1SCCNc2c1c(-c1ccccn1)nn2C (stereo not shown) | < 50 | 100 to 1000 | –
5 | Cc1nn(C)c2c1C(c1ccc(Cl)cc1Cl)SC(C)(C)CN2CC(O)C(F)(F)F (stereo not shown) | < 50 | > 10000 | –
6 | Cn1nc(-c2ccccn2)c2c1NCCSC2c1ccc(C(=O)O)cc1Cl (stereo not shown) | < 50 | 100 to 1000 | –
7 | Cc1ncccc1NC(=O)c1ccc([C@H]2SCCNc3c2c(-c2ccccn2)nn3C)c(Cl)c1 | – | < 100 | A (a compound with Emax>70%)
8 | Cc1cc(C(=O)Nc2cccnc2C)ccc1C1SCCNc2c1c(-c1ccccn1)nn2C (stereo not shown) | > 70 | < 100 | –
9 | Cc1ccc(C2SCCNc3c2c(-c2ccccn2)nn3C)c(Cl)c1 (stereo not shown) | < 50 | < 100 | –
10 | Cn1nc(-c2ccccn2)c2c1NCCSC2c1ccccc1Cl (stereo not shown) | < 50 | < 100 | –
11 | Cc1nn(C)c2c1C(c1ccc(Cl)cc1Cl)SC(C)(C)CN2C=O (stereo not shown) | < 50 | 1000 to 10000 | –
12 | Cc1nn(C)c2c1C(c1ccc(Cl)cc1Cl)SC(C)(C)C(=O)N2C (stereo not shown) | < 50 | 1000 to 10000 | –
13 | Cc1nn(C)c2c1C(c1ccc(Cl)cc1Cl)SC(C)(C)CN2C (stereo not shown) | < 50 | 100 to 1000 | –
14 | Cn1nc(-c2ccccn2)c2c1NCCSC2c1ccc(Br)cc1Cl (stereo not shown) | < 50 | < 100 | –
15 | Cc1cc(Br)ccc1C1SCCNc2c1c(-c1ccccn1)nn2C (stereo not shown) | > 50 | < 100 | –
16 | CCc1cc(Cl)ccc1C1SCCNc2c1c(-c1ccccn1)nn2C (stereo not shown) | > 50 | < 100 | –
17 | Cc1cc(Cl)ccc1C1SCCNc2c1c(-c1ccn[nH]1)nn2C (stereo not shown) | < 50 | 100 to 1000 | –
18 | CC1=Nc2c(c(-c3ccccn3)nn2C)C(c2ccc(Cl)cc2C)SC1 (stereo not shown) | < 50 | 100 to 1000 | –
19 | C=Cc1cc(Cl)ccc1C1SCCNc2c1c(-c1ccccn1)nn2C (stereo not shown) | > 60 | < 100 | –
20 | Cc1cc(Cl)ccc1[C@H]1SC(C)(C)CNc2c1c(C1CC1)nn2C | > 60 | < 100 | –
21 | Cc1cc(Cl)ccc1[C@H]1SC[C@H](C)Nc2c1c(-c1ccccn1)nn2C | < 50 | 1000 to 10000 | –
22 | Cc1cc(Cl)ccc1[C@@H]1SC(C)(C)CNc2c1c(C1CC1)nn2C | < 50 | 100 to 1000 | –
23 | Cc1cc(Cl)ccc1[C@@H]1SC[C@@H](C)Nc2c1c(-c1ccccn1)nn2C | > 70 | < 100 | –
24 | CCn1nc(-c2ccccn2)c2c1NCCCC2c1ccc(Br)cc1 (stereo not shown) | > 70 | < 100 | –
25 | Cc1cc(C(=O)Nc2cccnc2C)ccc1[C@H]1SCCNc2c1c(-c1ccccn1)nn2C | – | 100 to 1000 | B (a compound with Emax>60%)

Row | SMILES | Emax [1] [%] | IC50 [2] [nM] | A549 Emax [1]
26 | Cc1cc(C(=O)Nc2cccnc2C)ccc1[C@@H]1SCCNc2c1c(-c1ccccn1)nn2C | – | < 100 | A (a compound with Emax>70%)
27 | Cn1nc([C@@H]2CCCN2)c2c1NCCSC2c1ccc(Cl)cc1Cl (mixture of isomers) | < 50 | > 10000 | –
28 | Cc1cc(Cl)ccc1C1SCCNc2c1c([C@@H]1CCCN1)nn2C (mixture of isomers) | < 50 | 1000 to 10000 | –
29 | Cc1cc(Br)ccc1[C@H]1SC[C@H](C(N)=O)Nc2c1c(-c1ccccn1)nn2C (racemic) | < 50 | 100 to 1000 | –
30 | Cc1cc(Br)ccc1C1SCC(C#N)Nc2c1c(-c1ccccn1)nn2C (racemic) | > 60 | < 100 | –
31 | Cc1cc(Br)ccc1[C@H]1SC[C@H](CC#N)Nc2c1c(-c1ccccn1)nn2C (racemic) | > 50 | < 100 | –
32 | Cc1cc2c(cnn2-c2ccc(F)cc2)cc1C1SCC(=O)Nc2c1c(-c1ccccn1)nn2C (racemic) | > 70 | < 100 | –
33 | Cc1cc(Cl)ccc1[C@@H]1S[C@@H](CCO)[C@@H](C)Nc2c1c(C)nn2C (racemic) | > 70 | < 100 | –
34 | Cc1cc(Br)ccc1[C@H]1SC[C@@H](C(F)(F)F)Nc2c1c(-c1ccccn1)nn2C (racemic) | < 50 | < 100 | –
35 | Cc1cc(Br)ccc1[C@H]1SC[C@H](C(F)(F)F)Nc2c1c(-c1ccccn1)nn2C (racemic) | < 50 | 100 to 1000 | –
36 | Cc1cc(C(=O)Nc2cccnc2C)ccc1[C@H]1CC[C@](O)(C(F)(F)F)Cc2c1c(-c1ccccn1)nn2C (racemic) | > 70 | < 100 | –
37 | Cc1cc(C(=O)Nc2cccnc2C)ccc1[C@H]1CC[C@@](O)(C(F)(F)F)Cc2c1c(-c1ccccn1)nn2C (racemic) | > 70 | < 100 | –
38 | Cc1cc(Cl)ccc1C1SCC(C)Nc2c1c(-c1ccccn1)nn2C (racemic) [4-(4-chloro-2-methyl-phenyl)-1,7-dimethyl-3-(2-pyridyl)-4,6,7,8-tetrahydropyrazolo[3,4-e][1,4]thiazepine] | > 70 | < 100 | –
39 | Cc1cc(C#N)ccc1[C@H]1S[C@@H](C)CNc2c1c(C1CC1)nn2C (racemic) [G.3] | < 50 | < 100 | –
40 | Cc1cc(C#N)ccc1[C@@H]1S[C@@H](C)CNc2c1c(C1CC1)nn2C (racemic) [G.4] | < 50 | < 100 | –
41 | Cc1cc(Cl)ccc1[C@H]1SC(C)(C)[C@@H](c2ccccc2)Nc2c1c(C)nn2C (racemic) [K.2] | < 50 | 1000 to 10000 | –
42 | Cc1cc(Cl)ccc1[C@H]1SC[C@@H](C)Nc2c1c(C)nn2C (racemic) [K.7] | < 50 | < 100 | –
43 | Cc1cc(Br)ccc1[C@@H]1SC[C@H](CO)Nc2c1c(-c1ccccn1)nn2C (racemic) [K.9] | < 50 | < 100 | –
44 | Cc1cc(Br)ccc1[C@@H]1SC[C@@H](CO)Nc2c1c(-c1ccccn1)nn2C (racemic) [K.10, rac-((4R,7S)-4-(4-bromo-2-methylphenyl)-1-methyl-3-(pyridin-2-yl)-4,6,7,8-tetrahydro-1H-pyrazolo[3,4-e][1,4]thiazepin-7-yl)methanol] | > 60 | < 100 | –
45 | Cc1ncccc1NC(=O)c1ccc(C2SCCNc3c2c(-c2ccccn2)nn3C)c(Cl)c1 (single isomer, unassigned) | < 50 | 1000 to 10000 | –
46 | Cc1cc(Cl)ccc1C1SCCNc2c1c(-c1ccccn1)nn2C (single isomer, unassigned) | < 50 | 100 to 1000 | –
47 | Cc1cc(Cl)ccc1C1SCC(C)Nc2c1c(-c1ccccn1)nn2C (single isomer, unassigned) | < 50 | 1000 to 10000 | –
48 | Cc1cc(C(=O)Nc2cccnc2C)ccc1C1SCC(CO)Nc2c1c(-c1ccccn1)nn2C (single isomer, unassigned) | > 70 | < 100 | –
49 | Cc1cc(Cl)ccc1C1SC(CCO)C(C)Nc2c1c(C)nn2C (single isomer, unassigned) | > 70 | 100 to 1000 | –
50 | Cn1nc(-c2ccccn2)c2c1NCCS[C@@H]2c1ccc(Br)cc1Cl (single isomer, unassigned) [M.1, 4-(4-bromo-2-chlorophenyl)-1-methyl-3-(pyridin-2-yl)-4,6,7,8-tetrahydro-1H-pyrazolo[3,4-e][1,4]thiazepine] | < 50 | 100 to 1000 | –
